Calls of active or inactive are those of the source. The rule behind the calls is not given here.
Test system: CCRIS mutagenicity, Ames/micronucleus/aberration tests
Assay: CCRIS mutagenicity studies
[1] = Test System: AMES SALMONELLA TYPHIMURIUM, Strain/Indicator: TA98, Metabolic Activation: NONE, Method: STANDARD PLATE
[2] = Test System: AMES SALMONELLA TYPHIMURIUM, Strain/Indicator: TA98, Metabolic Activation: RAT, LIVER, S-9, AROCLOR 1254, Method: STANDARD PLATE
[3] = Test System: AMES SALMONELLA TYPHIMURIUM, Strain/Indicator: TA100, Metabolic Activation: NONE, Method: STANDARD PLATE
[4] = Test System: AMES SALMONELLA TYPHIMURIUM, Strain/Indicator: TA100, Metabolic Activation: RAT, LIVER, S-9, AROCLOR 1254, Method: STANDARD PLATE
[5] = Test System: AMES SALMONELLA TYPHIMURIUM, Strain/Indicator: TA1535, Metabolic Activation: NONE, Method: STANDARD PLATE
[6] = Test System: AMES SALMONELLA TYPHIMURIUM, Strain/Indicator: TA1535, Metabolic Activation: RAT, LIVER, S-9, AROCLOR 1254, Method: STANDARD PLATE
[7] = Test System: AMES SALMONELLA TYPHIMURIUM, Strain/Indicator: TA1537, Metabolic Activation: NONE, Method: STANDARD PLATE
[8] = Test System: AMES SALMONELLA TYPHIMURIUM, Strain/Indicator: TA1537, Metabolic Activation: RAT, LIVER, S-9, AROCLOR 1254, Method: STANDARD PLATE

In the case of `Cc1cc(N)c(C)cc1N`, the mutagenic call [1] is reported as “inactive; negative”, the mutagenic call [2] is reported as “active; positive” and the mutagenic call [3] is reported as “inactive; negative”. The mutagenic call [4] was “inactive; negative”, the mutagenic call [5] was “inactive; negative” and the mutagenic call [6] was “inactive; negative”. The mutagenic call [7] was “inactive; negative”, the mutagenic call [8] was “inactive; negative” and the mutagenic call (Test System: AMES SALMONELLA TYPHIMURIUM, Strain/Indicator: TA1538, Metabolic Activation: NONE, Method: STANDARD PLATE) was “inactive; negative”. The mutagenic call (Test System: AMES SALMONELLA TYPHIMURIUM, Strain/Indicator: TA1538, Metabolic Activation: RAT, LIVER, S-9, AROCLOR 1254, Method: STANDARD PLATE) was “inactive; negative”.

In the case of `C=CCNc1ccccc1.C=CCNc1ccccc1.C=CCNc1ccccc1.[Cl-].[Cl-].[Rh].[Rh]`, the mutagenic call (Test System: AMES SALMONELLA TYPHIMURIUM, Strain/Indicator: TA92, Metabolic Activation: NONE, Method: STANDARD PLATE) is reported as “inactive; negative”.

In the case of `C#CCOS(=O)(=O)c1ccc(C)cc1`, the mutagenic call [3] is reported as “inactive; negative” and the mutagenic call (Test System: AMES SALMONELLA TYPHIMURIUM, Strain/Indicator: TA100, Metabolic Activation: RAT, LIVER, S-9, Method: STANDARD PLATE) is reported as “active; positive”.

With `CCC1(CC)C(=O)NC(=O)NC1=O` the mutagenic call (End Point: IN VITRO MICRONUCLEUS, Test System: CHL/IU CELLS, Metabolic Activation: NONE) was “active; positive”.

`O=C(O)C1=NN(c2ccc(S(=O)(=O)O)cc2)C(=O)C1N=Nc1ccc(S(=O)(=O)O)cc1.[Al]` (stereo not given) was tested, and the mutagenic call (Test System: AMES SALMONELLA TYPHIMURIUM, Strain/Indicator: TA97, Metabolic Activation: HAMSTER, LIVER, S-9, AROCLOR 1254 (10%), Method: PREINCUBATION) was “inactive; negative”, the mutagenic call (Test System: AMES SALMONELLA TYPHIMURIUM, Strain/Indicator: TA97, Metabolic Activation: HAMSTER, LIVER, S-9, AROCLOR 1254 (30%), Method: PREINCUBATION) was “inactive; negative” and the mutagenic call (Test System: AMES SALMONELLA TYPHIMURIUM, Strain/Indicator: TA97, Metabolic Activation: NONE, Method: PREINCUBATION) was “inactive; negative”. The mutagenic call (Test System: AMES SALMONELLA TYPHIMURIUM, Strain/Indicator: TA97, Metabolic Activation: RAT, LIVER, S-9, AROCLOR 1254 (10%), Method: PREINCUBATION) was “inactive; negative”, the mutagenic call (Test System: AMES SALMONELLA TYPHIMURIUM, Strain/Indicator: TA97, Metabolic Activation: RAT, LIVER, S-9, AROCLOR 1254 (30%), Method: PREINCUBATION) was “inactive; negative” and the mutagenic call (Test System: AMES SALMONELLA TYPHIMURIUM, Strain/Indicator: TA98, Metabolic Activation: HAMSTER, LIVER, S-9, AROCLOR 1254 (10%), Method: PREINCUBATION) was “inactive; negative”. The mutagenic call (Test System: AMES SALMONELLA TYPHIMURIUM, Strain/Indicator: TA98, Metabolic Activation: HAMSTER, LIVER, S-9, AROCLOR 1254 (30%), Method: PREINCUBATION) was “inactive; negative”, the mutagenic call (Test System: AMES SALMONELLA TYPHIMURIUM, Strain/Indicator: TA98, Metabolic Activation: NONE, Method: PREINCUBATION) was “inactive; negative” and the mutagenic call (Test System: AMES SALMONELLA TYPHIMURIUM, Strain/Indicator: TA98, Metabolic Activation: RAT, LIVER, S-9, AROCLOR 1254 (10%), Method: PREINCUBATION) was “inactive; negative”. For the same molecule, the mutagenic call (Test System: AMES SALMONELLA TYPHIMURIUM, Strain/Indicator: TA98, Metabolic Activation: RAT, LIVER, S-9, AROCLOR 1254 (30%), Method: PREINCUBATION) was “inactive; negative”, the mutagenic call (Test System: AMES SALMONELLA TYPHIMURIUM, Strain/Indicator: TA100, Metabolic Activation: HAMSTER, LIVER, S-9, AROCLOR 1254 (10%), Method: PREINCUBATION) was “inactive; negative” and the mutagenic call (Test System: AMES SALMONELLA TYPHIMURIUM, Strain/Indicator: TA100, Metabolic Activation: HAMSTER, LIVER, S-9, AROCLOR 1254 (30%), Method: PREINCUBATION) was “inactive; negative”. The mutagenic call (Test System: AMES SALMONELLA TYPHIMURIUM, Strain/Indicator: TA100, Metabolic Activation: NONE, Method: PREINCUBATION) was “inactive; negative”, the mutagenic call (Test System: AMES SALMONELLA TYPHIMURIUM, Strain/Indicator: TA100, Metabolic Activation: RAT, LIVER, S-9, AROCLOR 1254 (10%), Method: PREINCUBATION) was “inactive; negative” and the mutagenic call (Test System: AMES SALMONELLA TYPHIMURIUM, Strain/Indicator: TA100, Metabolic Activation: RAT, LIVER, S-9, AROCLOR 1254 (30%), Method: PREINCUBATION) was “inactive; negative”. The mutagenic call (Test System: AMES SALMONELLA TYPHIMURIUM, Strain/Indicator: TA1535, Metabolic Activation: HAMSTER, LIVER, S-9, AROCLOR 1254 (10%), Method: PREINCUBATION) was “inactive; negative”, the mutagenic call (Test System: AMES SALMONELLA TYPHIMURIUM, Strain/Indicator: TA1535, Metabolic Activation: HAMSTER, LIVER, S-9, AROCLOR 1254 (30%), Method: PREINCUBATION) was “inactive; negative” and the mutagenic call (Test System: AMES SALMONELLA TYPHIMURIUM, Strain/Indicator: TA1535, Metabolic Activation: NONE, Method: PREINCUBATION) was “inactive; negative”. For the same molecule, the mutagenic call (Test System: AMES SALMONELLA TYPHIMURIUM, Strain/Indicator: TA1535, Metabolic Activation: RAT, LIVER, S-9, AROCLOR 1254 (10%), Method: PREINCUBATION) was “inactive; negative”, the mutagenic call (Test System: AMES SALMONELLA TYPHIMURIUM, Strain/Indicator: TA1535, Metabolic Activation: RAT, LIVER, S-9, AROCLOR 1254 (30%), Method: PREINCUBATION) was “inactive; negative” and the mutagenic call (Test System: AMES SALMONELLA TYPHIMURIUM, Strain/Indicator: TA1537, Metabolic Activation: HAMSTER, LIVER, S-9, AROCLOR 1254 (30%), Method: PREINCUBATION) was “inactive; negative”. For the same molecule, the mutagenic call (Test System: AMES SALMONELLA TYPHIMURIUM, Strain/Indicator: TA1537, Metabolic Activation: NONE, Method: PREINCUBATION) was “inactive; negative” and the mutagenic call (Test System: AMES SALMONELLA TYPHIMURIUM, Strain/Indicator: TA1537, Metabolic Activation: RAT, LIVER, S-9, AROCLOR 1254 (30%), Method: PREINCUBATION) was “inactive; negative”.

In the case of `CC1(C)C(=O)[C@]2(C)CC[C@H]1C2`, the mutagenic call (Test System: AMES SALMONELLA TYPHIMURIUM, Strain/Indicator: TA98, Metabolic Activation: HAMSTER, LIVER, S-9, AROCLOR 1254, Method: STANDARD PLATE) is reported as “inactive; negative”, the mutagenic call [1] is reported as “inactive; negative” and the mutagenic call [2] is reported as “inactive; negative”. For the same molecule, the mutagenic call (Test System: AMES SALMONELLA TYPHIMURIUM, Strain/Indicator: TA100, Metabolic Activation: HAMSTER, LIVER, S-9, AROCLOR 1254, Method: STANDARD PLATE) was “inactive; negative”, the mutagenic call [3] was “inactive; negative” and the mutagenic call [4] was “inactive; negative”. For the same molecule, the mutagenic call (Test System: AMES SALMONELLA TYPHIMURIUM, Strain/Indicator: TA102, Metabolic Activation: HAMSTER, LIVER, S-9, AROCLOR 1254, Method: STANDARD PLATE) was “inactive; negative”, the mutagenic call (Test System: AMES SALMONELLA TYPHIMURIUM, Strain/Indicator: TA102, Metabolic Activation: NONE, Method: STANDARD PLATE) was “inactive; negative” and the mutagenic call (Test System: AMES SALMONELLA TYPHIMURIUM, Strain/Indicator: TA102, Metabolic Activation: RAT, LIVER, S-9, AROCLOR 1254, Method: STANDARD PLATE) was “inactive; negative”. For the same molecule, the mutagenic call (Test System: AMES SALMONELLA TYPHIMURIUM, Strain/Indicator: TA1535, Metabolic Activation: HAMSTER, LIVER, S-9, AROCLOR 1254, Method: STANDARD PLATE) was “inactive; negative”, the mutagenic call [5] was “inactive; negative” and the mutagenic call [6] was “inactive; negative”. The mutagenic call (Test System: AMES SALMONELLA TYPHIMURIUM, Strain/Indicator: TA1537, Metabolic Activation: HAMSTER, LIVER, S-9, AROCLOR 1254, Method: STANDARD PLATE) was “inactive; negative”, the mutagenic call [7] was “inactive; negative” and the mutagenic call [8] was “inactive; negative”. For the same molecule, the mutagenic call (Test System: Mouse lymphoma, Strain/Indicator: L5178Y (tk+/tk-), Metabolic Activation: None, Method: Suspension/plate) was “inactive; negative” and the mutagenic call (Test System: Mouse lymphoma, Strain/Indicator: L5178Y (tk+/tk-), Metabolic Activation: Rat, Liver, S-9, Aroclor 1254, Method: Suspension/plate) was “active; positive”.

In the case of `O[Te](O)(O)(O)(O)O`, the mutagenic call (End Point: IN VITRO MICRONUCLEUS, Test System: HUMAN PERIPHERAL LYMPHOCYTES, Metabolic Activation: NONE, Method: FISH (CENTROMERIC SIGNAL CONTENT)) is reported as “active; positive”.

Source: PubChem BioAssay AID1259407 (Chemical Carcinogenesis Research Information System (CCRIS), 2018)
